Assay results reported in PMC11062899, “De novo development of small cyclic peptides that are orally bioavailable” (Nature Chemical Biology, 2023).

Target: human α-thrombin (Homo sapiens, UniProt P00734)
Assay: Sub-library screen for active and permeable cyclic peptides (PAMPA plus thrombin inhibition)
Format: biochemical
Conditions: crude, slopes normalized to DMSO; for Residual thrombin activity: Top sample: PAMPA acceptor well after 14 h, 5 μM donor; for Residual thrombin activity: Equilibrated sample: donor sample diluted to theoretical equilibrium (1 μM in assay)
Protocol: Linear dithiol peptides were synthesized in fritted 5-ml polypropylene syringes on a MultiPep RSi parallel peptide synthesizer (Intavis) by standard Fmoc-based solid-phase peptide synthesis on cysteamine 2-chlorotrityl resin (Sigma-Aldrich, 8.56000, 1.63 mmol g^−1 loading, 25 μmol scale) as described above with small changes. Amino acids (65 μmol, 2.6 eq.) were activated with HATU (63 μmol, 2.5 eq.) and NMM (145 μmol, 5.8 eq.) in 280 μl of DMF and 5 μl of NMP and let to react with the resin (25 μmol, 1 eq.) for 45 min. Couplings were performed twice for each amino acid. Resin was washed once with 800 μl of DMF, and unreacted amines were capped with 5% acetic anhydride and 6% 2,6-lutidine in 400 μl of DMF for 5 min. The resin was washed six times with 600 μl of DMF, and Fmoc protecting groups were removed by incubating the resin twice with 450 μl of a 20% piperidine solution in DMF for 5 min. The resin was washed six times with 600 μl of DMF before proceeding to the next coupling cycle. After completing the last coupling cycle, the resin was washed six times with […] of DCM. Peptide cleavage and ether precipitation were carried out as described above. After quantification with Ellman’s reagent, 1 μmol of each peptide was transferred in seven replicates to new Nunc 96-well DeepWell polypropylene plates and lyophilized. Peptides were cyclized as described above to afford 20 mM cyclic peptide stock solutions in DMSO containing 160 mM HEPES sodium salt. The amine on cyclic peptides was acylated with 5-chlorothiophene-2-carboxylic acid as follows. A 160 mM solution in 5-chlorothiophene-2-carboxylic acid was prepared in DMSO containing 160 mM HEPES sodium salt, and the acid was activated by mixing in equal volumes with a 160 mM HSTU solution in DMSO. Then, 10 μl of the activated carboxylic acid solutions and the cyclic peptide stocks were placed in Echo Qualified 384-well Low Dead Volume microplates (Labcyte), and 400 nl of cyclic peptide and 400 nl of HSTU-activated 5-chlorothiophene-2-carboxylic acid were transferred combinatorially to 384-well microplates (Greiner, 781076) using the Echo 650 acoustic liquid handler (Labcyte). Plates were centrifuged at 2,000 g for 2 min, and the reaction was allowed to proceed at room temperature for 8 h before addition of 39.2 μl of DMSO with a CERTUS FLEX liquid dispenser (Gyger). A volume of 25 μl of the resulting DMSO solutions was diluted with PBS buffer at pH 7.4 containing 5% DMSO in Nunc 96-well DeepWell polypropylene plates to afford 5 μM solutions of the acylated peptides.
The PAMPA plates were covered with a lid to avoid evaporation and incubated for 14 h at room temperature. Additionally, a diluted donor sample was prepared at the concentration representing theoretical maximum permeability (3 μM). Thereby, 30 μl of the donor sample before incubation was diluted with 20 μl of PBS buffer at pH 7.4 containing 5% DMSO. Volumes of 16 μl of each acceptor well and the diluted donor samples were transferred to a 384-well microplate (Greiner, 781076), and thrombin activity was measured as follows. Human α-thrombin (16 μl, 6 nM, Molecular Innovations) in assay buffer was dispensed into each well using a CERTUS FLEX liquid dispenser (Gyger), and plates were incubated at room temperature for 10 min. Then, 16 μl of a 150 μM fluorogenic thrombin substrate solution (Z-Gly-Gly-Arg-AMC, Bachem) in assay buffer containing 1% DMSO was added to each well, and thrombin inhibition was determined by measuring the fluorescent gain over time. Fluorescence intensity was measured on a Tecan Infinite M200 Pro microplate reader for 30 min at 25 °C with a fluorescent readout every 3 min (excitation: 360 nm, emission: 465 nm). Protease inhibition was calculated by comparing the enzymatic activity to a control without cyclic peptide.

SMILES	Residual thrombin activity: Top sample	Residual thrombin activity: Equilibrated sample
O=C1C[C@H]2CCCN2C(=O)[C@H](Cc2ccc(Cl)cc2)NC(=O)[C@@H](NC(=O)c2ccc(Cl)s2)CSCCS(=O)(=O)CCSCCN1 [C1-X34-L2]	95.9	98.3
O=C1C[C@H]2CCCN2C(=O)[C@H](Cc2ccc(Cl)cc2)NC(=O)[C@@H](NC(=O)c2ccc(Cl)s2)CSCc2ccc(cc2)CSCCN1 [C1-X34-L3]	96.0	94.6
O=C1C[C@H]2CCCN2C(=O)[C@H](Cc2ccc(Cl)cc2)NC(=O)[C@@H](NC(=O)c2ccc(Cl)s2)CSC/C=C/CSCCN1 [C1-X34-L4]	98.7	91.7
O=C1C[C@H]2CCCN2C(=O)[C@H](Cc2ccc(Cl)cc2)NC(=O)[C@@H](NC(=O)c2ccc(Cl)s2)CSCc2cccc(c2)CSCCN1 [C1-X34-L5]	97.0	98.5
O=C1C[C@H]2CCCN2C(=O)[C@H](Cc2ccc(Cl)cc2)NC(=O)[C@@H](NC(=O)c2ccc(Cl)s2)CSCc2ccccc2CSCCN1 [C1-X34-L6]	93.0	92.0
O=C1CSCCNC(=O)C[C@H]2CCCN2C(=O)[C@H](Cc2ccc(Cl)cc2)NC(=O)[C@@H](NC(=O)c2ccc(Cl)s2)CSC1 [C1-X34-L7]	100.2	98.8
N#Cc1ccc(C[C@@H]2NC(=O)[C@@H](NC(=O)c3ccc(Cl)s3)CSCc3cccc(n3)CSCCNC(=O)C[C@H]3CCCN3C2=O)cc1 [C1-X35-L1]	91.5	92.1
N#Cc1ccc(C[C@@H]2NC(=O)[C@@H](NC(=O)c3ccc(Cl)s3)CSCCS(=O)(=O)CCSCCNC(=O)C[C@H]3CCCN3C2=O)cc1 [C1-X35-L2]	95.6	96.6
N#Cc1ccc(C[C@@H]2NC(=O)[C@@H](NC(=O)c3ccc(Cl)s3)CSCc3ccc(cc3)CSCCNC(=O)C[C@H]3CCCN3C2=O)cc1 [C1-X35-L3]	94.1	100.0
N#Cc1ccc(C[C@@H]2NC(=O)[C@@H](NC(=O)c3ccc(Cl)s3)CSC/C=C/CSCCNC(=O)C[C@H]3CCCN3C2=O)cc1 [C1-X35-L4]	93.4	96.9
N#Cc1ccc(C[C@@H]2NC(=O)[C@@H](NC(=O)c3ccc(Cl)s3)CSCc3cccc(c3)CSCCNC(=O)C[C@H]3CCCN3C2=O)cc1 [C1-X35-L5]	102.4	97.2
N#Cc1ccc(C[C@@H]2NC(=O)[C@@H](NC(=O)c3ccc(Cl)s3)CSCc3ccccc3CSCCNC(=O)C[C@H]3CCCN3C2=O)cc1 [C1-X35-L6]	90.5	92.5
N#Cc1ccc(C[C@@H]2NC(=O)[C@@H](NC(=O)c3ccc(Cl)s3)CSCC(=O)CSCCNC(=O)C[C@H]3CCCN3C2=O)cc1 [C1-X35-L7]	96.3	100.4
O=C1C[C@H]2CCCN2C(=O)[C@H](Cc2ccc(C(F)(F)F)cc2)NC(=O)[C@@H](NC(=O)c2ccc(Cl)s2)CSCc2cccc(n2)CSCCN1 [C1-X36-L1]	93.6	98.9
O=C1C[C@H]2CCCN2C(=O)[C@H](Cc2ccc(C(F)(F)F)cc2)NC(=O)[C@@H](NC(=O)c2ccc(Cl)s2)CSCCS(=O)(=O)CCSCCN1 [C1-X36-L2]	99.0	102.5
O=C1C[C@H]2CCCN2C(=O)[C@H](Cc2ccc(C(F)(F)F)cc2)NC(=O)[C@@H](NC(=O)c2ccc(Cl)s2)CSCc2ccc(cc2)CSCCN1 [C1-X36-L3]	95.8	94.6
O=C1C[C@H]2CCCN2C(=O)[C@H](Cc2ccc(C(F)(F)F)cc2)NC(=O)[C@@H](NC(=O)c2ccc(Cl)s2)CSC/C=C/CSCCN1 [C1-X36-L4]	96.8	92.7
O=C1C[C@H]2CCCN2C(=O)[C@H](Cc2ccc(C(F)(F)F)cc2)NC(=O)[C@@H](NC(=O)c2ccc(Cl)s2)CSCc2cccc(c2)CSCCN1 [C1-X36-L5]	101.6	104.5
O=C1C[C@H]2CCCN2C(=O)[C@H](Cc2ccc(C(F)(F)F)cc2)NC(=O)[C@@H](NC(=O)c2ccc(Cl)s2)CSCc2ccccc2CSCCN1 [C1-X36-L6]	91.2	94.8
O=C1CSCCNC(=O)C[C@H]2CCCN2C(=O)[C@H](Cc2ccc(C(F)(F)F)cc2)NC(=O)[C@@H](NC(=O)c2ccc(Cl)s2)CSC1 [C1-X36-L7]	100.3	99.5
Cc1cccc(C[C@@H]2NC(=O)[C@@H](NC(=O)c3ccc(Cl)s3)CSCc3cccc(n3)CSCCNC(=O)C[C@H]3CCCN3C2=O)c1 [C1-X37-L1]	86.5	84.1
Cc1cccc(C[C@@H]2NC(=O)[C@@H](NC(=O)c3ccc(Cl)s3)CSCCS(=O)(=O)CCSCCNC(=O)C[C@H]3CCCN3C2=O)c1 [C1-X37-L2]	93.0	57.2
Cc1cccc(C[C@@H]2NC(=O)[C@@H](NC(=O)c3ccc(Cl)s3)CSCc3ccc(cc3)CSCCNC(=O)C[C@H]3CCCN3C2=O)c1 [C1-X37-L3]	95.4	90.2
Cc1cccc(C[C@@H]2NC(=O)[C@@H](NC(=O)c3ccc(Cl)s3)CSC/C=C/CSCCNC(=O)C[C@H]3CCCN3C2=O)c1 [C1-X37-L4]	87.8	60.4
Cc1cccc(C[C@@H]2NC(=O)[C@@H](NC(=O)c3ccc(Cl)s3)CSCc3cccc(c3)CSCCNC(=O)C[C@H]3CCCN3C2=O)c1 [C1-X37-L5]	100.9	88.0
Cc1cccc(C[C@@H]2NC(=O)[C@@H](NC(=O)c3ccc(Cl)s3)CSCc3ccccc3CSCCNC(=O)C[C@H]3CCCN3C2=O)c1 [C1-X37-L6]	93.2	84.4
Cc1cccc(C[C@@H]2NC(=O)[C@@H](NC(=O)c3ccc(Cl)s3)CSCC(=O)CSCCNC(=O)C[C@H]3CCCN3C2=O)c1 [C1-X37-L7]	94.3	97.7
